Structures can show the parent of a compound that is named as a salt.
Columns and labels:
[1] = Feasibility pK rat study (LAI potential of aqueous micro-suspensions, IM); type: in vivo; conditions: 50 mg/kg, aqueous micro-suspension 125 mg/mL; for long-acting release profile (yes/no): citrate buffer pH 5, FIG. 9
Description: For this study, aqueous micro-suspensions of Selexipag, {4-[(5,6-diphenylpyrazin-2-yl)(propan-2-yl)amino]butoxy}acetic acid and calcium; {4-[(5,6-diphenylpyrazin-2-yl)(propan-2-yl)amino]butoxy}acetate were prepared. An overview of the design of the study can be found in Table 1.
Release profiles and mean AUC of the different formulations are depicted in FIG. 9.

[2] = Solubility in water / aqueous media and dissolution rate; type: physicochemical; conditions: for solubility: water / aqueous media
[3] = test system: pulmonary arterial hypertension; conditions: phase III, patients with pulmonary arterial hypertension; cited from earlier work
[4] = Physical stability of solid form on storage (7 days, humidity); type: physicochemical
[5] = Hygroscopicity (change in mass between 0 and 90% RH); type: physicochemical
[6] = 7 days storage at 25° C./97% RH
[7] = 7 days storage at 40° C./75% RH

Molecule	long-acting release profile (yes/no) [1]	dissolution rate [2]	solubility [2]	physical stability after storage [4, 6]	physical stability after storage [4, 7]	other results
CC(C)N(CCCCOCC(=O)O)c1cnc(-c2ccccc2)c(-c2ccccc2)n1 [Ca-salt of ACT-333679, calcium; {4-[(5,6-diphenylpyrazin-2-yl)(propan-2-yl)amino]butoxy}acetate]						duration of long-acting release profile ([1]; FIG. 9): up to 336 hours; time until which AUC increases ([1]; FIG. 9): ≤ 720 h; plasma concentrations compared to both other groups ([1]; PVP K17 citrate buffer, FIG. 9): significant lower plasma concentrations; solubility ([2]; listed as calcium salt of selexipag metabolite): low solubility in water; solubility ([2]; {4-[(5,6-diphenylpyrazin-2-yl)(propan-2-yl)amino]butoxy}acetate): low solubility in aqueous media
CC(C)N(CCCCOCC(=O)O)c1cnc(-c2ccccc2)c(-c2ccccc2)n1 [Selexipag metabolite, 2-(4-((5,6-diphenylpyrazin-2-yl)(isopropyl)amino)butoxy)acetic acid]	did not demonstrate a long-acting release profile	high	high			
CC(C)N(CCCCOCC(=O)NS(C)(=O)=O)c1cnc(-c2ccccc2)c(-c2ccccc2)n1 [Selexipag, 2-{4-[(5,6-diphenylpyrazin-2-yl)(propan-2-yl)amino]butoxy}-N-(methanesulfonyl)acetamide]	did not demonstrate a long-acting release profile	high	high			risk of the primary composite end point of death or a complication related to pulmonary arterial hypertension vs placebo [3]: significantly lower
Calcium; {4-[(5,6-diphenylpyrazin-2-yl)(propan-2-yl)amino]butoxy}acetate [Amorphous Form]				physically stable	physically stable	
calcium; {4-[(5,6-diphenylpyrazin-2-yl)(propan-2-yl)amino]butoxy}acetate [Form 2]				physically stable	physically stable	hygroscopicity [5]: slightly hygroscopic; reversible change in mass ([5]; between 0 and 90% RH): 2%

Source: patent US20240425463A1, “PROCESS FOR MANUFACTURING A DIPHENYLPHRAZINE DERIVATIVE” (ACTELION PHARMACEUTICALS LTD, priority 2021, published 2024)
